Measurements: patent US20160002204A1 (Board of Regents, The University of Texas System, priority 2014, published 2016)
pEC50, pIC50: −log10 of the molar value.

What was measured:
[1] = molecular target: T1, GLS1 (purified recombinant human GAC) (Homo sapiens, UniProt O94925); assay: GLS1 enzymatic activity assay (dual-coupled, Amplex UltraRed/resorufin); format: biochemical
T1 sequence (O94925 55-598 isoform O94925-3 limits assumed): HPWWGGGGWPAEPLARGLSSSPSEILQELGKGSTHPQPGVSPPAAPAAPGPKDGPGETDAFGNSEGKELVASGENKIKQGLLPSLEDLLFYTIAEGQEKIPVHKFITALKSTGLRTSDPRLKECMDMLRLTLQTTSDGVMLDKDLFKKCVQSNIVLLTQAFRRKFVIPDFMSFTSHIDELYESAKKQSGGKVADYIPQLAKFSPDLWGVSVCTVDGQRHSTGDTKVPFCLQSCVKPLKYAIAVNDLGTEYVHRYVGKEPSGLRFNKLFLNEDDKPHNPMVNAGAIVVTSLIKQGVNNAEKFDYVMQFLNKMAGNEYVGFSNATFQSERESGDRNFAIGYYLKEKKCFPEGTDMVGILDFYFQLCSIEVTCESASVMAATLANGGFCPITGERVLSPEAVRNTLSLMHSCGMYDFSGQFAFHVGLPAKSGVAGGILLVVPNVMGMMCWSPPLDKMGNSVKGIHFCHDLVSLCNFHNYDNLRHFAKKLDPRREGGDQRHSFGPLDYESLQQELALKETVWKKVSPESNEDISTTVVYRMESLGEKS
Summary of the method: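 GAC activity measured by coupling glutamate to glutamate oxidase and HRP, generating resorufin from Amplex UltraRed. Enzyme (2 nM) preincubated with 50 mM potassium phosphate 10 min at room temperature, then inhibitor 10 min; 1 mM glutamine substrate, 1% DMSO. Fluorescence 530/590 nm, kinetic or 20-min endpoint; IC50 from four-parameter logistic fit.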

A549 cells = assay: A549 proliferation (viability) assay, Cell Titer Fluor, 72 hours; format: cell-based; conditions: Homo sapiens
Summary of the method: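 A549 cells seeded at 1000 cells/well, left 24 h, then exposed to compound for 72 h at 37 °C, 5% CO2, final DMSO 0.5% (v/v). Viability read by Cell Titer Fluor fluorescence; EC50 from four-parameter logistic fit.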

Row | SMILES | pIC50 [1] | pEC50 (A549 cells)
1 | CCOC(=O)c1cn(CC(F)CCn2ccc(NC(=O)OC(C)(C)C)c(F)c2=O)nn1 (centres unmarked) [Example 311, ethyl 1-[4-(4-{[(tert-butoxy)carbonyl]amino}-3-fluoro-2-oxo-1,2-dihydropyridin-1-yl)-2-fluorobutyl]-1H-1,2,3-triazole-4-carboxylate] | 5.30 to 6.30 | < 5.30
2 | O=C(Cc1ccccc1)Nc1ccn(CCC(F)Cn2cc(C(=O)NCc3ccc(CF)nc3)nn2)c(=O)c1F (centres unmarked) [Example 375, 1-{2-fluoro-4-[3-fluoro-2-oxo-4-(2-phenylacetamido)-1,2-dihydropyridin-1-yl]butyl}-N-{[6-(fluoro-methyl)pyridin-3-yl]methyl}-1H-1,2,3-triazole-4-carboxamide] | 6.30 to 7.00 | 5.30 to 6.30
3 | C[C@H](NC(=O)Nc1ccn(CCCCc2ccc(NC(=O)Cc3ccccc3)nn2)c(=O)n1)c1ccccc1 [Example 90, N-(6-{4-[2-oxo-4-({[(1S)-1-phenylethyl]carbamoyl}amino)-1,2-dihydropyrimidin-1-yl]butyl}pyridazin-3-yl)-2-phenylacetamide] | 6.30 to 7.00 | < 5.30
4 | CC(C)OC(=O)Nc1ccn(CCC(F)Cn2cc(C(=O)NCc3cccc(OC(F)(F)F)c3)nn2)c(=O)n1 (centres unmarked) [Example 384, propan-2-yl N-(1-{3-fluoro-4-[4-({[3-(trifluoromethoxy)phenyl]methyl}carbamoyl)-1H-1,2,3-triazol-1-yl]butyl}-2-oxo-1,2-dihydro-pyrimidin-4-yl)carbamate] | > 7.00 | 6.30 to 7.00
5 | CC(C)COC(=O)Nc1ccn(CCC(F)Cn2cc(C(=O)NCc3cccc(OC(F)(F)F)c3)nn2)c(=O)n1 (centres unmarked) [Example 471, 2-methylpropyl N-(1-{3-fluoro-4-[4-({[3-(trifluoro-methoxy)phenyl]methyl}carbamoyl)-1H-1,2,3-triazol-1-yl]butyl}-2-oxo-1,2-dihydropyrimidin-4-yl)carbamate] | > 7.00 | > 7.00
6 | O=C(CC1CCSCC1)Nc1ccn(CCCCn2cc(C(=O)NCc3cccc(OC(F)(F)F)c3)nn2)c(=O)c1 [Example 169, 1-(4-{2-oxo-4-[2-(thian-4-yl)acetamido]-1,2-dihydropyridin-1-yl}butyl)-N-{[3-(trifluoromethoxy)phenyl]methyl}-1H-1,2,3-triazole-4-carboxamide] | > 7.00 | 6.30 to 7.00
7 | O=C(CC1CCCC1)Nc1ccn(CCC(F)Cn2cc(C(=O)NCc3cccc(C(F)(F)F)n3)nn2)c(=O)c1F (centres unmarked) [Example 318, 1-{4-[4-(2-cyclopentylacetamido)-3-fluoro-2-oxo-1,2-dihydropyridin-1-yl]-2-fluorobutyl}-N-{[6-(trifluoromethyl)pyridin-2-yl]methyl}-1H-1,2,3-triazole-4-carboxamide] | > 7.00 | > 7.00
8 | O=C(Nc1ccn(CCC(F)Cn2cc(C(=O)NCc3cccc(OC(F)(F)F)c3)nn2)c(=O)n1)OCc1ccccc1 (centres unmarked) [Example 470, benzyl N-(1-{3-fluoro-4-[4-({[3-(trifluoromethoxy)phenyl]methyl}carbamoyl)-1H-1,2,3-triazol-1-yl]butyl}-2-oxo-1,2-dihydropyrimidin-4-yl)carbamate] | > 7.00 | > 7.00
9 | CC(C)(C)OC(=O)N[C@H]1CC[C@H](CC(=O)Nc2ccn(CCC(F)Cn3cc(C(=O)NCc4cccc(OC(F)(F)F)c4)nn3)c(=O)c2)CC1 (some centres unmarked) [Example 239, tert-butyl N-[(1r,4r)-4-{[(1-{3-fluoro-4-[4-({[3-(trifluoromethoxy)phenyl]methyl}carbamoyl)-1H-1,2,3-triazol-1-yl]butyl}-2-oxo-1,2-dihydropyridin-4-yl)carbamoyl]methyl}cyclo-hexyl]carbamate] | > 7.00 | > 7.00
10 | O=C(CC1CCCC1)Nc1ccn(CCCCc2nnc(NC(=O)NCc3ccccc3)s2)c(=O)c1F [Example 130, N-(1-(4-(5-(3-benzylureido)-1,3,4-thiadiazol-2-yl)butyl)-3-fluoro-2-oxo-1,2-dihydropyridin-4-yl)-2-cyclopentylacetamide] | > 7.00 | 5.30 to 6.30
11 | CO[C@H](C(=O)Nc1ccn(CCC(F)Cn2cc(C(=O)NCc3cccc(OC(F)(F)F)c3)nn2)c(=O)c1)c1ccccc1 (stereo partly drawn) [Example 184, 1-(2-fluoro-4-{4-[(2S)-2-methoxy-2-phenylacetamido]-2-oxo-1,2-dihydropyridin-1-yl}butyl)-N-{[3-(trifluoromethoxy)phenyl]methyl}-1H-1,2,3-triazole-4-carboxamide] | > 7.00 | > 7.00
12 | O=C(NCc1cc(C(F)(F)F)ccn1)c1cn(CC(F)CCn2ccc(NC(=O)[C@@H](O)c3ccccc3)c(F)c2=O)nn1 (stereo partly drawn) [Example 326, 1-(2-fluoro-4-{3-fluoro-4-[(2S)-2-hydroxy-2-phenylacetamido]-2-oxo-1,2-dihydropyridin-1-yl}butyl)-N-{[4-(trifluoromethyl)pyridin-2-yl]methyl}-1H-1,2,3-triazole-4-carboxamide] | > 7.00 | > 7.00

Next, values leading:

Row | pIC50 [1] | pEC50 (A549 cells) | SMILES
13 | > 7.00 | 5.30 to 6.30 | O=C(CC1CCS(=O)(=O)CC1)Nc1ccn(CCCCn2cc(C(=O)NCc3cccc(OC(F)(F)F)c3)nn2)c(=O)c1 [Example 179, 1-(4-{4-[2-(1,1-dioxo-1$l^6-thian-4-yl)acetamido]-2-oxo-1,2-dihydropyridin-1-yl}butyl)-N-{[3-(trifluoromethoxy)phenyl]methyl}-1H-1,2,3-triazole-4-carboxamide]
14 | > 7.00 | < 5.30 | CS(=O)(=O)c1ccc(CNC(=O)c2cn(CCCCn3ccc(NC(=O)Cc4cccc(OC(F)(F)F)c4)cc3=O)nn2)cc1 [Example 68, N-[(4-methanesulfonylphenyl)methyl]-1-[4-(2-oxo-4-{2-[3-(trifluoromethoxy)phenyl]acetamido}-1,2-dihydropyridin-1-yl)butyl]-1H-1,2,3-triazole-4-carboxamide]
15 | > 7.00 | 5.30 to 6.30 | O=C(Cc1ccc2ccccc2n1)Nc1ccn(CCC(F)Cn2cc(C(=O)NCc3cccc(OC(F)(F)F)c3)nn2)c(=O)c1 (centres unmarked) [Example 253, 1-(2-fluoro-4-{2-oxo-4-[2-(quinolin-2-yl)acetamido]-1,2-dihydropyridin-1-yl}butyl)-N-{[3-(trifluoromethoxy)phenyl]methyl}-1H-1,2,3-triazole-4-carboxamide]
16 | > 7.00 | 6.30 to 7.00 | O=C(NCc1cccc(OC(F)(F)F)c1)c1cn(CC(F)CCn2ccc(COc3ccc(Cl)cc3)cc2=O)nn1 (centres unmarked) [Example 477, 1-{4-[4-(4-chlorophenoxymethyl)-2-oxo-1,2-dihydropyridin-1-yl]-2-fluorobutyl}-N-{[3-(trifluoromethoxy)phenyl]methyl}-1H-1,2,3-triazole-4-carboxamide]
17 | > 7.00 | 5.30 to 6.30 | CS(=O)(=O)c1cccc(CNC(=O)c2cn(CCCCn3ccc(NC(=O)Cc4cccc(OC(F)(F)F)c4)cc3=O)nn2)c1 [Example 53, N-[(3-methanesulfonylphenyl)methyl]-1-[4-(2-oxo-4-{2-[3-(trifluoromethoxy)phenyl]acetamido}-1,2-dihydropyridin-1-yl)butyl]-1H-1,2,3-triazole-4-carboxamide]
18 | > 7.00 | 6.30 to 7.00 | O=C(NCc1cc(C(F)(F)F)ccn1)c1cn(CC(F)CCn2ccc(COc3cccc(F)c3)cc2=O)nn1 (centres unmarked) [Example 482, 1-{2-fluoro-4-[4-(3-fluorophenoxymethyl)-2-oxo-1,2-dihydropyridin-1-yl]butyl}-N-{[4-(trifluoromethyl)pyridin-2-yl]methyl}-1H-1,2,3-triazole-4-carboxamide]
19 | 6.30 to 7.00 | 5.30 to 6.30 | COc1ccc(CNC(=O)c2ccn(CCCCn3cc(C(=O)NCc4cccc(OC(F)(F)F)c4)nn3)c(=O)c2)c(OC)c1 [Example 61, N-[(2,4-dimethoxyphenyl)methyl]-2-oxo-1-{4-[4-({[3-(trifluoro-methoxy)phenyl]methyl}carbamoyl)-1H-1,2,3-triazol-1-yl]butyl}-1,2-dihydropyridine-4-carboxamide]
20 | > 7.00 | 5.30 to 6.30 | Cc1ccc(CNC(=O)c2cn(CCCCn3ccc(NC(=O)Cc4ccccc4)cc3=O)nn2)cn1 [Example 158, N-[(6-methylpyridin-3-yl)methyl]-1-{4-[2-oxo-4-(2-phenylacetamido)-1,2-dihydropyridin-1-yl]butyl}-1H-1,2,3-triazole-4-carboxamide]
21 | > 7.00 | 6.30 to 7.00 | O=C(Cc1ncc(Cl)cc1F)Nc1ccn(CCC(F)Cn2cc(C(=O)NCc3cccc(OC(F)(F)F)c3)nn2)c(=O)c1 (centres unmarked) [Example 243, 1-(4-{4-[2-(5-chloro-3-fluoropyridin-2-yl)acetamido]-2-oxo-1,2-dihydropyridin-1-yl}-2-fluorobutyl)-N-{[3-(trifluoromethoxy)phenyl]methyl}-1H-1,2,3-triazole-4-carboxamide]
22 | > 7.00 | > 7.00 | O=C(NCc1cccc(OC(F)(F)F)c1)c1cn(CC(F)CCn2ccc(NC(=O)C3CCCC3)c(F)c2=O)nn1 (centres unmarked) [Example 342, 1-[4-(4-cyclopentaneamido-3-fluoro-2-oxo-1,2-dihydropyridin-1-yl)-2-fluorobutyl]-N-{[3-(trifluoromethoxy)phenyl]methyl}-1H-1,2,3-triazole-4-carboxamide]
